In one test the test system is MT4. As to the kind of experiment: Cytotoxicity against human MT4 cells. The class given is functional, cell-based.
Another test has as its system MCF7. As to the kind of experiment: Cytotoxicity against human MCF7 cells. In kind it is functional, cell-based.
The test system of a further test is HeLa. As to the kind of experiment: Cytotoxicity against human HeLa cells. In kind it is functional, cell-based.
Test [1] concerns the target DNA topoisomerase 2-alpha (Homo sapiens, UniProt P11388). As to the kind of experiment: Inhibition of human topoisomerase 2alpha-mediated relaxation of supercoiled pBR322 after 1 hr by ethidium bromide staining.

The values that follow come from ChEMBL document CHEMBL2440027, “Further SAR studies on bicyclic basic merbarone analogues as potent antiproliferative agents” (Bioorg Med Chem, 2013).

Chain of DNA topoisomerase 2-alpha (P11388 whole entry): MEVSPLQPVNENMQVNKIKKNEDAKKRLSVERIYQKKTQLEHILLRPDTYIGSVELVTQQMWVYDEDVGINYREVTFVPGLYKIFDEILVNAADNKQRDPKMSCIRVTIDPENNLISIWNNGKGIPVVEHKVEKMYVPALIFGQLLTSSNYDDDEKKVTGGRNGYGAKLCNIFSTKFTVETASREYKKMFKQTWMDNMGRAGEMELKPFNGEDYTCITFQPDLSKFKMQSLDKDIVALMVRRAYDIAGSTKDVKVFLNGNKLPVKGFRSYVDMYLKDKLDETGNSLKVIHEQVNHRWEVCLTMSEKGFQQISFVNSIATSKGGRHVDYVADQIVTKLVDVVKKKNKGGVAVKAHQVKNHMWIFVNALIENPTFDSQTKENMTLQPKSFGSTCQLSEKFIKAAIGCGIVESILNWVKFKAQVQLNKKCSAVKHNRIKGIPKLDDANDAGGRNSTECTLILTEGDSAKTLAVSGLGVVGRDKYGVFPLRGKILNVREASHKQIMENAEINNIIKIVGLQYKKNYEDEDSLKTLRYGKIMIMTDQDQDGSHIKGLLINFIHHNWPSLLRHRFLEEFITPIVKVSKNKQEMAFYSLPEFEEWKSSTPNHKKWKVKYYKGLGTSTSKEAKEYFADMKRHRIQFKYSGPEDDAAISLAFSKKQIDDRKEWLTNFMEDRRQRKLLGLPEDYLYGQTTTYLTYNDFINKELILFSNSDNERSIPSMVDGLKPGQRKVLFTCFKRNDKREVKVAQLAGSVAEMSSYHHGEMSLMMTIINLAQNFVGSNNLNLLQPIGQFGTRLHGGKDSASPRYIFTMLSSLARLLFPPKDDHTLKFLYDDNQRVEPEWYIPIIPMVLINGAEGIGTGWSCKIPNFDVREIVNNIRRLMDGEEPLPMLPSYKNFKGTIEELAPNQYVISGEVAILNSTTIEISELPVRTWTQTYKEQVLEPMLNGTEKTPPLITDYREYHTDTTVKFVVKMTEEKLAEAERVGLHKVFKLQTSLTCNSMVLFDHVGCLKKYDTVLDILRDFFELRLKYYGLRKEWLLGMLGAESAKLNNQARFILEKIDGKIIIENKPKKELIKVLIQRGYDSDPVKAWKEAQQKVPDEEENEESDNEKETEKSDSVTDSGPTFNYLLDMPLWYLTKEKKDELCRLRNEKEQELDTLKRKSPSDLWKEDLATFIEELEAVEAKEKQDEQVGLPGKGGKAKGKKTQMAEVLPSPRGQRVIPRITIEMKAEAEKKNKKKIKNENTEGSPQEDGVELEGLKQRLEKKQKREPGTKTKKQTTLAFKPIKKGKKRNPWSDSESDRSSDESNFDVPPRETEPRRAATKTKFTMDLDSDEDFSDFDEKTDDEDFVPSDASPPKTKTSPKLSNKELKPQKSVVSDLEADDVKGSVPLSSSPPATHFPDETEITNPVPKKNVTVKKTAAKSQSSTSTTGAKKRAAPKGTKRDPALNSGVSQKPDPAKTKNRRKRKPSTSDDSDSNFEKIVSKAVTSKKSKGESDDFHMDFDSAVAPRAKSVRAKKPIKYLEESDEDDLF

The molecule `CCN(CC)CCSc1nc2c(c(=N)n1-c1ccccc1)c(=S)n(-c1ccccc1)c(=S)n2-c1ccccc1` returned an IC50 with MT4 of 3.3 µM.
On to `CN1CCN(c2nc3c(c(=N)n2-c2ccccc2)c(=S)n(-c2ccccc2)c(=S)n3-c2ccccc2)CC1`, for which the IC50 in the test with MCF7 was > 50 µM; in the test on HeLa (Homo sapiens, HeLa), > 50 µM; with MT4, > 100 µM.
Take `N=c1c2c(=S)n(-c3ccccc3)c(=S)n(-c3ccccc3)c2nc(NNc2ccccc2)n1-c1ccccc1`: the IC50 in the test on MT4 is > 100 µM.
For `CCN(CC)CCNc1nc2c(c(=N)n1-c1ccccc1)c(=S)n(-c1ccccc1)c(=S)n2-c1ccccc1`, the IC50 with MCF7 is 11.1 µM; in the test on HeLa (Homo sapiens, HeLa), 16.9 µM; in test [1], > 100 µM; with MT4, 2.5 µM.
For the molecule `N=c1c2c(=S)n(-c3ccccc3)c(=S)n(-c3ccccc3)c2nc(SCCN2CCCCC2)n1-c1ccccc1`, in the test with MT4, half-maximal inhibition (IC50) was put at 3.6 µM.
With `N=c1c2c(=S)n(-c3ccccc3)c(=S)n(-c3ccccc3)c2nc(NCCc2ccc(Cl)cc2)n1-c1ccccc1` [listing 1 of 2 here], the IC50 in the test on MCF7 was found to be 25.6 µM; with HeLa (Homo sapiens, HeLa), 5.6 µM; in test [1], 2 µM.
In the same order, the values of `N=c1c2c(=S)n(-c3ccccc3)c(=S)n(-c3ccccc3)c2nc(NCc2cccnc2)n1-c1ccccc1` [listing 1 of 2 here] are 24.3 µM, 14.6 µM and 3 µM.
In the same order, the values of `CN1CCN(CCCNc2nc3c(c(=N)n2-c2ccccc2)c(=S)n(-c2ccccc2)c(=S)n3-c2ccccc2)CC1` [listing 1 of 2 here] are 5.7 µM, 8.5 µM and > 35 µM.
In the same order, the values of `N=c1c2c(=S)n(-c3ccccc3)c(=S)n(-c3ccccc3)c2nc(NCCN2CCCCC2)n1-c1ccccc1` [listing 1 of 2 here] are 26.7 µM, 5.2 µM and 3 µM.
On to `CCCCN(CCCC)CCCNc1nc2c(c(=N)n1-c1ccccc1)c(=S)n(-c1ccccc1)c(=S)n2-c1ccccc1`, for which the IC50 in the test on MCF7 is < 1 µM; in the test on HeLa (Homo sapiens, HeLa), 2 µM; in test [1], > 32 µM.
Consider `CN(C)CCCNc1nc2c(c(=N)n1-c1ccccc1)c(=S)n(-c1ccccc1)c(=S)n2-c1ccccc1`, for which the IC50 in the test on MCF7 is 5.5 µM; in the test with HeLa (Homo sapiens, HeLa), 7.8 µM; in test [1], > 100 µM; in the test with MT4, 1.7 µM.
In turn, `N=c1c2c(=S)n(-c3ccccc3)c(=S)n(-c3ccccc3)c2nc(NCCN2CCCCC2)n1-c1ccccc1` [listing 2 of 2 here] registered a 50% inhibitory concentration (IC50) with MT4 of 1.7 µM.
`CN1CCN(CCCNc2nc3c(c(=N)n2-c2ccccc2)c(=S)n(-c2ccccc2)c(=S)n3-c2ccccc2)CC1` [listing 2 of 2 here] had an IC50 in the test with MT4 of 2 µM.
Regarding `N=c1c2c(=S)n(-c3ccccc3)c(=S)n(-c3ccccc3)c2nc(NCc2ccccn2)n1-c1ccccc1`, the IC50 in the test on MCF7 was > 50 µM; in the test with HeLa (Homo sapiens, HeLa), > 50 µM; in test [1], > 100 µM; in the test with MT4, 7 µM.
Consider `N=c1c2c(=S)n(-c3ccccc3)c(=S)n(-c3ccccc3)c2nc(NCc2cccnc2)n1-c1ccccc1` [listing 2 of 2 here], for which the values for the IC50 (in the test with HeLa (hela); in test [1]; in the test with MT4) were 12.6 µM, 3 µM and > 100 µM, respectively.
`N=c1c2c(=S)n(-c3ccccc3)c(=S)n(-c3ccccc3)c2nc(NCCc2ccc(Cl)cc2)n1-c1ccccc1` [listing 2 of 2 here]: the values for the IC50 (in the test with HeLa (hela); in test [1]; with MT4) were 5.9 µM, 2 µM and 2.4 µM, respectively.
Turning to `N=c1c2c(=S)n(-c3ccccc3)c(=S)n(-c3ccccc3)c2nc(NCCc2ccccn2)n1-c1ccccc1`, the IC50 is 17.3 µM in the test with MCF7; 10.5 µM in the test with HeLa (Homo sapiens, HeLa); > 100 µM in test [1]; 8 µM in the test on MT4.
For `N=c1c2c(=S)n(-c3ccccc3)c(=S)n(-c3ccccc3)c2nc(NCCc2ccncc2)n1-c1ccccc1`, the IC50 in the test with MCF7 was 17.8 µM; in the test on HeLa (Homo sapiens, HeLa) it was 15.4 µM; in test [1] it was > 100 µM; in the test on MT4, 16 µM.
As to `N=c1c2c(=S)n(-c3ccccc3)c(=S)n(-c3ccccc3)c2nc(NCCCn2ccnc2)n1-c1ccccc1`, the IC50 with MCF7 was > 100 µM; in the test with HeLa (Homo sapiens, HeLa), > 100 µM; with MT4 it was 8 µM.
Take `O=C1NC(=S)NC(=O)C1C(=O)Nc1ccccc1` [MERBARONE]: the IC50 in the test with MCF7 was 61.6 µM; with HeLa (Homo sapiens, HeLa) it was 43.8 µM; in test [1], 32 µM; in the test on MT4 it was 12 µM.

By IC50 is commonly meant the midpoint of a concentration-inhibition curve. Lower therefore signals greater potency.
